Reference: US20050244335A1, “Methods and compositions related to increasing antitumor activity of chemotherapeutic agents” (priority 2004, published 2005)

Assay: Pharmacokinetics of carboplatin in nude mice bearing LS174T xenografts
Assay type: in vivo
Settings: for AUC / CL / Cmax / T1/2 / Vss: nude mice bearing LS174T xenografts, carboplatin 60 mg/kg iv
Description: Pharmacokinetics and Tissue Distribution of Carboplatin. Pharmacokinetic studies were carried out using a protocol similar to that previously described (26) using metabolism cages. Female nude mice bearing human colon cancer LS174T xenografts or human lung cancer A549 xenografts were used (3 animals for each time point). Animals were pre-treated with DEX (s.c., 0.1 mg/day/mouse for 5 days) or saline (as controls) and, at 1 hr after the fifth dose of DEX, were given a single intravenously (i.v.) bolus administration of carboplatin (60 mg/kg) via a tail vein. At various times (5, 15, and 30 min, 1, 2, 4, 8, and 24 hr after carboplatin dosing), blood samples were collected in heparinized tubes and tissue samples removed. Plasma was separated by centrifugation at 20,000 g for 5 min. Tissues including liver, kidneys, spleen, and tumor were taken at various times and immediately blotted on Whatman No. 1 filter paper, trimmed of extraneous fat or connective tissue, weighed, and homogenized in 0.9% NaCl physiological saline (5 mL per gram of wet weight). The resultant homogenates were stored at −70° C. until further analysis. Bone marrow cells were harvested by flushing the femurs with sterile physiological saline as reported previously (30). Briefly, after removing the distal and proximal ends of femur, each end of the bone was punctured with a 20-gauge needle fitted with a 5 mL syringe containing 1 mL of sterile physiological saline (pre-weighed). The bone was then held with a forceps over a test tube and the needle was inserted into the hole in the proximal end. The 1 mL saline was flushed through the bone into the tube by applying gentle, steady pressure to the plunger. The syringe was then filled with 5 ml of air that was gently forced through the bone to remove the remaining saline and bone marrow in the shaft. The resultant bone marrow cell suspension was weighed and lysed by sonicating 5 times for periods of 10 sec. Following centrifugation at 20,000 g for 30 min, the supernatant was removed and stored at −70° C. until further analysis.
HPLC Analysis of Carboplatin in Plasma and Tissues. Carboplatin in biological samples was analyzed by an analytical procedure involving micro-filtration and reversed-phase HPLC (31). 200 μL of plasma or tissue homogenates or bone marrow suspension was added to the reservoir of a Centrifree™ micropartition system. The latter was capped and centrifuged at 2,000 g for 5 min. All filtrates were transferred into a new micro centrifuge tube and 6 μL of the filtrates was injected onto the HPLC column. The HPLC system consisted of a Hewlett Packard 1050 ChemStation with a UV detector (Agilent 1050 series). Determination of Carboplatin was achieved using a LiChrosorb™ diol (10 μm, 250×4.6 mm) analytical column with a LiChroCART 100 RP-18 guard column. The mobile phase for plasma was composed of 98:2 acetonitrile:H2O (vol/vol) and 89:11 acetonitrile: 0.015% H3PO4 (vol/vol) for urine and tissue samples. The flow rates were 2 mL/min (for plasma) and 1.1 mL/min (for urine and tissue samples). The column elute was monitored by UV at 229 nm. Quantitation of plasma or tissue carboplatin was carried out by using an external standard curve (0-4,000.0 μg/mL) that was freshly prepared on a daily basis. Linear regression and correlation analysis were carried out to establish the standard peak-area/concentration curves for carboplatin.
Data and Statistical Analysis.

[1] = LS174T nude mice, without DEX treatment

In the case of `N.N.O=C([O-])C1(C(=O)[O-])CCC1.[Pt+2]` [carboplatin], the “decrease in tumor Clearance by DEX pretreatment” value (LS174T nude mice) is reported as 160%, the “increase in tumor AUC by DEX pretreatment” value (LS174T nude mice) is reported as 200% and the “increase in tumor Cmax by DEX pretreatment” value (LS174T nude mice) is reported as 100%. For the same molecule, the “tumor AUC relative to bone marrow AUC” value [1] was 3%, the “tumor AUC relative to liver AUC” value [1] was 23% and the “tumor AUC relative to spleen AUC” value [1] was 4%. The AUC (bone marrow, DEX (+)) was 269710 ng·h/mL, the CL (bone marrow, DEX (+)) was 0.22 mL/g/h and the Cmax (bone marrow, DEX (+)) was 22560 ng/mL. It also gave a T1/2 (bone marrow, DEX (+)) of 410 min, a Vss (bone marrow, DEX (+)) of 2.17 mL/g and an AUC (bone marrow, DEX (−)) of 411270 ng·h/mL. For the same molecule, the CL (bone marrow, DEX (−)) was 0.15 mL/g/h, the Cmax (bone marrow, DEX (−)) was 23360 ng/mL and the T1/2 (bone marrow, DEX (−)) was 669.6 min. For the same molecule, the Vss (bone marrow, DEX (−)) was 2.42 mL/g, the AUC (liver, DEX (+)) was 42450 ng·h/mL and the CL (liver, DEX (+)) was 1.41 mL/g/h. For the same molecule, the Cmax (liver, DEX (+)) was 19410 ng/mL, the T1/2 (liver, DEX (+)) was 33.6 min and the Vss (liver, DEX (+)) was 1.14 mL/g. It also gave an AUC (liver, DEX (−)) of 51520 ng·h/mL, a CL (liver, DEX (−)) of 1.16 mL/g/h and a Cmax (liver, DEX (−)) of 26970 ng/mL. It also gave a T1/2 (liver, DEX (−)) of 29.4 min, a Vss (liver, DEX (−)) of 0.82 mL/g and an AUC (plasma, DEX (+)) of 43160 ng·h/mL. The CL (plasma, DEX (+)) was 1.39 mL/g/h, the Cmax (plasma, DEX (+)) was 280800 ng/mL and the T1/2 (plasma, DEX (+)) was 6.6 min. For the same molecule, the Vss (plasma, DEX (+)) was 0.21 mL/g, the AUC (plasma, DEX (−)) was 44510 ng·h/mL and the CL (plasma, DEX (−)) was 1.35 mL/g/h. For the same molecule, the Cmax (plasma, DEX (−)) was 375270 ng/mL, the T1/2 (plasma, DEX (−)) was 4.8 min and the Vss (plasma, DEX (−)) was 0.16 mL/g. The AUC (spleen, DEX (+)) was 480 ng·h/mL, the CL (spleen, DEX (+)) was 126.35 mL/g/h and the Cmax (spleen, DEX (+)) was 9440 ng/mL. For the same molecule, the T1/2 (spleen, DEX (+)) was 2.4 min, the Vss (spleen, DEX (+)) was 6.36 mL/g and the AUC (spleen, DEX (−)) was 353360 ng·h/mL. It also gave a CL (spleen, DEX (−)) of 0.17 mL/g/h, a Cmax (spleen, DEX (−)) of 24200 ng/mL and a T1/2 (spleen, DEX (−)) of 595 min. The Vss (spleen, DEX (−)) was 2.43 mL/g, the AUC (tumor, DEX (+)) was 33540 ng·h/mL and the CL (tumor, DEX (+)) was 1.79 mL/g/h. For the same molecule, the Cmax (tumor, DEX (+)) was 89800 ng/mL, the T1/2 (tumor, DEX (+)) was 15.6 min and the Vss (tumor, DEX (+)) was 0.67 mL/g. It also gave an AUC (tumor, DEX (−)) of 12790 ng·h/mL, a CL (tumor, DEX (−)) of 4.69 mL/g/h and a Cmax (tumor, DEX (−)) of 44160 ng/mL. It also gave a T1/2 (tumor, DEX (−)) of 12 min and a Vss (tumor, DEX (−)) of 1.36 mL/g.
